Measured values reported in patent US20250034207A1, “PEPTIDES AND PEPTIDE CONJUGATES FOR TREATING MENTAL DISORDERS” (Kyoto University, priority 2016, published 2025).
No end group written: not given here.

Test system: ddY mice
Experiment: Tail suspension test in mice after oral administration
Format: in vivo
Conditions: for Activity Rating: rating excellent, good, moderate or low from percent reduction of control immobility, 0.3 mg/kg; for % of SEQ ID NO: 1 activity: reduction of control immobility relative to SEQ ID NO:1, 0.3 mg/kg oral, average where tested more than once; for Immobility time for peptides dosed at 0.3 mg/kg as percent of control immobility time, Example 16: Example 16 (retest)
Method: The tail suspension test is an experimental method used to screen potential antidepressant drugs (Can et al., 2012, J Vis Exp., 59: e3769). In the test as implemented in the Examples, a test substance is orally administered to mice (ddY mice, males, 24˜30 g) and 30 minutes later the mice are suspended by their tails for six minutes. The amount of time that a mouse is immobile (i.e. is not displaying escape behavior) during the six minutes is measured to provide an immobility time. The administration of anti-depressant drugs such as imipramine reduces immobility time. Therefore, if a reduction of immobility time is observed when testing a test substance, it can be concluded that the test substance has anti-depressant properties. Immobility is considered a despair state, and, therefore, a reduction of immobility time also indicates an increase in motivation (i.e., that the test substance has motivation-increasing properties).

Substance	Activity Rating	% of SEQ ID NO: 1 activity [%]	further results
AQQSY (Designed peptide) [SEQ ID NO:5]	Moderate	26.16	Immobility time for peptides dosed at 0.3 mg/kg as percent of control immobility time, Example 3 (FIG. 3B) (0.3 mg/kg oral): 86.87% of control immobility time
AQQSYW (Designed peptide) [SEQ ID NO:41]	Low	5.32	Immobility time for peptides dosed at 0.3 mg/kg as percent of control immobility time, Example 14 (0.3 mg/kg oral): 97.33% of control immobility time
ESFFLSSTQAQQSY (Designed peptide) [SEQ ID NO:42]	Low	−39.13	Immobility time for peptides dosed at 0.3 mg/kg as percent of control immobility time, Example 15 (0.3 mg/kg oral): 119.64% of control immobility time
FFLSSTQAQQSYLQ (Designed peptide) [SEQ ID NO:44]	Good	33.91	Immobility time for peptides dosed at 0.3 mg/kg as percent of control immobility time, Example 15 (0.3 mg/kg oral): 82.98% of control immobility time; Immobility time compared to control (0.3 mg/kg oral, Example 15 (FIG. 11)): decreased
LSSTQ (Designed peptide) [SEQ ID NO:4]	Good	36.80	Immobility time for peptides dosed at 0.3 mg/kg as percent of control immobility time, Example 3 (FIG. 3B) (0.3 mg/kg oral): 81.53% of control immobility time
LSSTQAQQ (Designed peptide) [SEQ ID NO:27]	Good	46.52	Immobility time for peptides dosed at 0.3 mg/kg as percent of control immobility time, Example 13 (0.3 mg/kg oral): 76.65% of control immobility time
LSSTQAQQS (Designed peptide) [SEQ ID NO:2]	Moderate	25.28	Immobility time for peptides dosed at 0.3 mg/kg as percent of control immobility time, Example 3 (FIG. 3A) (0.3 mg/kg oral): 87.31% of control immobility time
LSSTQAQQSF (Designed peptide) [SEQ ID NO:7]	Excellent	115.46	Immobility time for peptides dosed at 0.3 mg/kg as percent of control immobility time, Example 6 (0.3 mg/kg oral): 42.05% of control immobility time
LSSTQAQQSW (Designed peptide) [SEQ ID NO:6]	Excellent	122.71	Immobility time for peptides dosed at 0.3 mg/kg as percent of control immobility time, Example 6 (0.3 mg/kg oral): 38.41% of control immobility time
LSSTQAQQSY (Designed peptide) [SEQ ID NO:1]	Excellent	100	Immobility time for peptides dosed at 0.3 mg/kg as percent of control immobility time, Example 1 (0.3 mg/kg oral, Example 1): 44.13% of control immobility time; Immobility time for peptides dosed at 0.3 mg/kg as percent of control immobility time, Example 3 (FIG. 3A) (0.3 mg/kg oral): 42.41% of control immobility time; Immobility time for peptides dosed at 0.3 mg/kg as percent of control immobility time, Example 3 (FIG. 3B) (0.3 mg/kg oral): 64.04% of control immobility time
LSSTQAQQSY-NH2 [SEQ ID NO:36, C-terminal amidated peptide conjugate]	Excellent	89.12	Immobility time for peptides dosed at 0.3 mg/kg as percent of control immobility time, Example 6 (0.3 mg/kg oral): 55.27% of control immobility time
LSSTQAQQSYLQGF (Designed peptide) [SEQ ID NO:43]	Low	−19.33	Immobility time for peptides dosed at 0.3 mg/kg as percent of control immobility time, Example 15 (0.3 mg/kg oral): 109.70% of control immobility time
LSSTQAQQSYW (Designed peptide) [SEQ ID NO:37]	Excellent	97.25	Immobility time for peptides dosed at 0.3 mg/kg as percent of control immobility time, Example 14 (0.3 mg/kg oral): 39.08% of control immobility time; Immobility time for peptides dosed at 0.3 mg/kg as percent of control immobility time, Example 16 (0.3 mg/kg oral): 58.54% of control immobility time
SSTQAQQS (Designed peptide) [SEQ ID NO:28]	Excellent	82.07	Immobility time for peptides dosed at 0.3 mg/kg as percent of control immobility time, Example 13 (0.3 mg/kg oral): 60.34% of control immobility time; Immobility time for peptides dosed at 0.3 mg/kg as percent of control immobility time, Example 16 (0.3 mg/kg oral): 57.29% of control immobility time
SSTQAQQSY (Designed peptide) [SEQ ID NO:3]	Excellent	64.81	Immobility time for peptides dosed at 0.3 mg/kg as percent of control immobility time, Example 3 (FIG. 3A) (0.3 mg/kg oral): 67.47% of control immobility time
STQAQQSY (Designed peptide) [SEQ ID NO:29]	Good	50.93	Immobility time for peptides dosed at 0.3 mg/kg as percent of control immobility time, Example 13 (0.3 mg/kg oral): 74.44% of control immobility time
WLSSTQ (Designed peptide) [SEQ ID NO:40]	Good	56.36	Immobility time for peptides dosed at 0.3 mg/kg as percent of control immobility time, Example 14 (0.3 mg/kg oral): 55.34% of control immobility time; Immobility time for peptides dosed at 0.3 mg/kg as percent of control immobility time, Example 16 (0.3 mg/kg oral): 88.09% of control immobility time
WLSSTQAQQSY (Designed peptide) [SEQ ID NO:38]	Good	55.25	Immobility time for peptides dosed at 0.3 mg/kg as percent of control immobility time, Example 14 (0.3 mg/kg oral): 72.27% of control immobility time
WLSSTQAQQSYW (Designed peptide) [SEQ ID NO:39]	Moderate	18.05	Immobility time for peptides dosed at 0.3 mg/kg as percent of control immobility time, Example 14 (0.3 mg/kg oral): 90.94% of control immobility time
